Here are results for 13 compounds from patent US9540392B2, “Thienopyrimidines” (BAYER PHARMA AKTIENGESELLSCHAFT, priority 2012, dated 2017).

Assay [1] deals with T1, human full-length MKNK1 (Homo sapiens, UniProt Q9BUB5, T385D).
T1 construct: GST (N); purchased Carna Biosciences 02-145; host or cells: insect cells (baculovirus expression system)
In words: MKNK1 kinase high ATP assay (TR-FRET). In kind it is biochemical. The conditions noted are these: 2 mM ATP, after preincubation with MKNK1; read-out: MKNK1 IC50 (MKNK1 high ATP). In short, it runs like this:
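Compound was preincubated 15 min at 22° C. with MKNK1 in 50 mM HEPES pH 7.5, 5 mM MgCl2, 1.0 mM DTT, then the reaction ran 30 min at 22° C. with 2 mM ATP and 0.06 μM biotinylated peptide (final).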
(Time-resolved FRET reads energy transfer from a long-lived donor to a nearby acceptor.)

The test system of assay [2] is eIF4E Ser209 phosphorylation in A549 cells. In words: AlphaScreen SureFire eIF4E Ser209 phosphorylation assay in A549 cells with 20% FCS stimulation. The format is cell-based. The settings on record: Homo sapiens, read-out: pEIF4e (IC50 of the EIF4e phosphorylation). From the text:
The AlphaScreen SureFire eIF4E Ser209 phoshorylation assay is used to measure the phosphorylation of endogenous eIF4E in cellular lysates. The AlphaScreen SureFire technology allows the detection of phosphorylated proteins in cellular lysates. In this assay, sandwich antibody complexes, which are only formed in the presence of the analyte (p-eIF4E Ser209), are captured by AlphaScreen donor and acceptor beads, bringing them into close proximity. The excitation of the donor bead provokes the release of singlet oxygen molecules that triggers a cascade of energy transfer in the Acceptor beads, resulting in the emission of light at 520-620 nm.
Surefire EIF4e Alphascreen in A549 cells with 20% FCS stimulation
For the assay the AlphaScreen SureFire p-eIF4E Ser209 10K Assay Kit and the AlphaScreen ProteinA Kit (for 10K assay points) both from Perkin Elmer were used. On day one 50.000 A549 cells were plated in a 96-well plate in 100 μL per well in growth medium (DMEM/Hams' F12 with stable Glutamin, 10% FCS) and incubated at 37° C. After attachment of the cells, medium was changed to starving medium (DMEM, 0.1% FCS, without Glucose, with Glutamin, supplemented with 5 g/L Maltose). On day two, test compounds were serially diluted in 50 μL starving medium with a final DMSO concentration of 1% and were added to A549 cells in test plates at a final concentration range from as high 10 μM to as low 10 nM depending on the activities of the tested compounds. Treated cells were incubated at 37° C. for 2 h. 37 ul FCS was added to the wells (=final FCS concentration 20%) for 20 min. Then medium was removed and cells were lysed by adding 50 μL lysis buffer. Plates were then agitated on a plate shaker for 10 min. After 10 min lysis time, 4 μL of the lysate is transferred to a 384 well plate (Proxiplate from Perkin Elmer) and 5 μL Reaction Buffer plus Activation Buffer mix containing AlphaScreen Acceptor beads was added. Plates were sealed with TopSeal-A adhesive film, gently agitated on a plate shaker for 2 hours at room temperature. Afterwards 2 μL Dilution buffer with AlphaScreen Donor beads were added under subdued light and plates were sealed again with TopSeal-A adhesive film and covered with foil. Incubation takes place for further 2 h gently agitation at room temperature. Plates were then measured in an EnVision reader (Perkin Elmer) with the AlphaScreen program. Each data point (compound dilution) was measured as triplicate.
The IC50 values were determined by means of a 4-parameter fit using the company's own software.
Background: In Alpha technology, singlet oxygen from a donor bead excites a nearby acceptor bead.

Assay [3] has as its target T1, human full-length MKNK1. Nature of the assay: MKNK1 kinase assay (TR-FRET). In kind it is biochemical. The settings on record: 10 μM ATP. From the text:
MKNK1-inhibitory activity of compounds of the present invention was quantified employing the MKNK1 TR-FRET assay as described in the following paragraphs.
A recombinant fusion protein of Glutathione-S-Transferase (GST, N-terminally) and human full-length MKNK1 (amino acids 1-424 and T344D of accession number BAA 19885.1), expressed in insect cells using baculovirus expression system and purified via glutathione sepharose affinity chromatography, was purchased from Carna Biosciences (product no 02-145) and used as enzyme. As substrate for the kinase reaction the biotinylated peptide biotin-Ahx-IKKRKLTRRKSLKG (C-terminus in amide form) was used which can be purchased e.g. form the company Biosyntan (Berlin-Buch, Germany).
For the assay 50 nL of a 100 fold concentrated solution of the test compound in DMSO was pipetted into a black low volume 384 well microtiter plate (Greiner Bio-One, Frickenhausen, Germany), 2 μL of a solution of MKNK1 in aqueous assay buffer [50 mM HEPES pH 7.5, 5 mM MgCl2, 1.0 mM dithiothreitol, 0.005% (v/v) Nonidet-P40 (Sigma)] was added and the mixture was incubated for 15 min at 22° C. to allow pre-binding of the test compounds to the enzyme before the start of the kinase reaction. Then the kinase reaction was started by the addition of 3 μL of a solution of adenosine-tri-phosphate (ATP, 16.7 μM=>final conc. in the 5 μL assay volume is 10 μM) and substrate (0.1 μM=>final conc. in the 5 μL assay volume is 0.06 μM) in assay buffer and the resulting mixture was incubated for a reaction time of 45 min at 22° C. The concentration of MKNK1 was adjusted depending of the activity of the enzyme lot and was chosen appropriate to have the assay in the linear range, typical concentrations were in the range of 0.05 μg/mL. The reaction was stopped by the addition of 5 μL of a solution of TR-FRET detection reagents (5 nM streptavidine-XL665 [Cisbio Bioassays, Codolet, France] and 1 nM anti-ribosomal protein […] (pSer236)-antibody from Invitrogen [#44921G] and 1 nM LANCE EU-W1024 Labeled ProteinG [Perkin-Elmer, product no. AD0071]) in an aqueous EDTA-solution (100 mM EDTA, 0.1% (w/v) bovine serum albumin in 50 mM HEPES pH 7.5).
The resulting mixture was incubated for 1 h at 22° C. to allow the formation of complex between the phosphorylated biotinylated peptide and the detection reagents. Subsequently the amount of phosphorylated substrate was evaluated by measurement of the resonance energy transfer from the Eu-chelate to the streptavidine-XL. Therefore, the fluorescence emissions at 620 nm and 665 nm after excitation at 350 nm were measured in a TR-FRET reader, e.g. a Rubystar (BMG Labtechnologies, Offenburg, Germany) or a Viewlux (Perkin-Elmer). […]

Assay [4] relates to 221 kinases other than MKNK. In words: Kinase selectivity profiling (Merck Millipore KinaseProfiler). The settings on record: compound at 1 μM. In kind it is biochemical. Here is the method:
Compounds of the present invention show a higher kinase inhibition selectivity than compounds disclosed in the patent applications WO 2010/023181 A1, WO 2011/104334 A1, WO 2011/104337 A1, WO 2011/104338 A1 and WO 2011/104340 A1 (Boehringer Ingelheim).
The compounds were tested at a concentration of 1 μM using 221 kinases different from MKNK. Kinase activity is expressed as a percentage of the mean kinase activity in the positive control samples. The positive control value is considered to be 100%, and all test samples are measured in relation to this value. For example, a result of 40% means that, in comparison to the positive control sample, 40% kinase activity remains in the presence of the test compound.
Table 6 lists the fraction number of 221 investigated kinases with regard to their remaining activity in the presence of 1 μM of investigated compounds.
The compound described in example 10 is compared to the compound N-[3-(dimethylamino)propyl]-4-[(4-fluoro-2-isopropoxyphenyl)amino]-5-methylthieno[2,3-d]pyrimidine-6-carboxamide which served as reference compound (ref) and has been described in WO 2010/23181, WO 2011/104340 and US 2011/212103.

One may read the IC50 as the midpoint of a concentration-inhibition curve.

T1 sequence (Q9BUB5 1-424 isoform Q9BUB5-2 T344D): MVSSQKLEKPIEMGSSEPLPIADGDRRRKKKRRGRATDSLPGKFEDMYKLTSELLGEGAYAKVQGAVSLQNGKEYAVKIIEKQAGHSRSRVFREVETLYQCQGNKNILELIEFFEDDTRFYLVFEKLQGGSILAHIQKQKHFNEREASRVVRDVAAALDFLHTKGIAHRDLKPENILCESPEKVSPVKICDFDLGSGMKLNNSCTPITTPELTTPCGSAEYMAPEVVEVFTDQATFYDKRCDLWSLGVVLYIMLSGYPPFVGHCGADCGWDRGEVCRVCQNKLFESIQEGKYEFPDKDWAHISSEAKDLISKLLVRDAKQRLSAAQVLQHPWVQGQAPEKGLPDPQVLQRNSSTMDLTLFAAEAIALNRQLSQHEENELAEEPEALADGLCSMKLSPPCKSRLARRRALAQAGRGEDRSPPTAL

As to `CC(C)NC(=O)C1CCc2c(sc3ncnc(Nc4cc5cn[nH]c5cc4OC(C)C)c23)C1` (racemic) [Example 72, (RS)—N-(Propan-2-yl)-4-{[6-(propan-2-yloxy)-1H-indazol-5-yl]amino}-5,6,7,8-tetrahydro[1]benzothieno[2,3-d]pyrimidine-7-carboxamide], the IC50 on human full-length MKNK1 [1] was 0.6 nM; in assay [2], 75 nM.
For the compound `Cc1ccccc1NC(=O)C1CCc2c(sc3ncnc(Nc4ccc5[nH]ncc5c4)c23)C1` (racemic) [Example 75, (RS)-4-(1H-Indazol-5-ylamino)-N-(2-methylphenyl)-5,6,7,8-tetrahydro[1]benzothieno[2,3-d]pyrimidine-7-carboxamide], the IC50 on human full-length MKNK1 [1] was 2.7 nM; in assay [2], 219 nM.
As for `CCOC(=O)C1CCc2c(sc3ncnc(Nc4ccc5[nH]ncc5c4)c23)C1` (stereo not shown) [Example 1, Ethyl 4-(1H-indazol-5-ylamino)-5,6,7,8-tetrahydro[1]benzothieno[2,3-d]pyrimidine-7-carboxylate], the IC50 was determined as 5 nM against human full-length MKNK1 [3] and 16 nM on human full-length MKNK1 [1].
The like results for `O=C(O)C1CCc2c(sc3ncnc(Nc4ccc5[nH]ncc5c4)c23)C1` (stereo not shown) [Example 2, 4-(1H-Indazol-5-ylamino)-5,6,7,8-tetrahydro[1]benzothieno[2,3-d]pyrimidine-7-carboxylic acid] were, in that order, 8 nM and 26 nM.
With `O=C(NCc1cccc(C(F)(F)F)c1)C1CCc2c(sc3ncnc(Nc4ccc5[nH]ncc5c4)c23)C1` (stereo not shown) [Example 9, 4-(1H-indazol-5-ylamino)-N-[3-(trifluoromethyl)benzyl]-5,6,7,8-tetrahydro[1]benzothieno[2,3-d]pyrimidine-7-carboxamide], the IC50 came to 3 nM at human full-length MKNK1 [1] and 171 nM in assay [2].
As to `CN(C)C(=O)C1CCc2c(sc3ncnc(Nc4ccc5[nH]ncc5c4)c23)C1` (stereo not shown) [Example 10, 4-(1H-indazol-5-ylamino)-N,N-dimethyl-5,6,7,8-tetrahydro[1]benzothieno[2,3-d]pyrimidine-7-carboxamide], the IC50 at human full-length MKNK1 [1] came out at 12 nM. In addition, in assay [4], the “Fraction number of 221 kinases with remaining activity >30% and <80%” value was 4/221; the “Fraction number of 221 kinases with remaining activity ≦30%” value was 0/221; the “Fraction number of 221 kinases with remaining activity ≧80%” value was 217/221.
On to `COc1ccccc1NC(=O)C1CCc2c(sc3ncnc(Nc4ccc5[nH]ncc5c4)c23)C1` (stereo not shown) [Example 12, 4-(1H-indazol-5-ylamino)-N-(2-methoxyphenyl)-5,6,7,8-tetrahydro[1]benzothieno[2,3-d]pyrimidine-7-carboxamide], for which the IC50 turned out to be 8 nM at human full-length MKNK1 [1] and 252 nM in assay [2].
On the same counts, the results for `Cc1cccc(NC(=O)C2CCc3c(sc4ncnc(Nc5ccc6[nH]ncc6c5)c34)C2)c1` (stereo not shown) [Example 16, 4-(1H-indazol-5-ylamino)-N-(3-methylphenyl)-5,6,7,8-tetrahydro[1]benzothieno[2,3-d]pyrimidine-7-carboxamide] are 5 nM and 373 nM.
On the same counts, the results for `O=C(NCc1cccc(F)c1)C1CCc2c(sc3ncnc(Nc4ccc5[nH]ncc5c4)c23)C1` (stereo not shown) [Example 18, N-(3-Fluorobenzyl)-4-(1H-indazol-5-ylamino)-5,6,7,8-tetrahydro[1]benzothieno-[2,3-d]pyrimidine-7-carboxamide] are 2 nM and 412 nM.
Take `Cc1cccc(CNC(=O)C2CCc3c(sc4ncnc(Nc5ccc6[nH]ncc6c5)c34)C2)c1` (stereo not shown) [Example 20, 4-(1H-indazol-5-ylamino)-N-(3-methylbenzyl)-5,6,7,8-tetrahydro[1] benzothieno [2,3-d]pyrimidine-7-carboxamide]: the IC50 at human full-length MKNK1 [1] was found to be 2 nM; in assay [2] it was 344 nM.
On to `O=C(NCc1ccccc1)C1CCc2c(sc3ncnc(Nc4ccc5[nH]ncc5c4)c23)C1` (stereo not shown) [Example 21, N-Benzyl-4-(1H-indazol-5-ylamino)-5,6,7,8-tetrahydro[1] benzothieno [2,3-d]pyrimidine-7-carboxamide], for which the results for the IC50 (on human full-length MKNK1 [1]; in assay [2]) were 3 nM and 381 nM, respectively.
On the same counts, the results for `CCNC(=O)C1CCc2c(sc3ncnc(Nc4cc5cn[nH]c5cc4OC)c23)C1` (stereo not shown) [Example 58, N-Ethyl-4-[(6-methoxy-1H-indazol-5-yl)amino]-5,6,7,8-tetrahydro[1]benzothieno[2,3-d]pyrimidine-7-carboxamide] are 0.7 nM and 203 nM.
Consider `Cc1c(C(=O)NCCCN(C)C)sc2ncnc(Nc3ccc(F)cc3OC(C)C)c12` [Ref, N-[3-(dimethylamino)propyl]-4-[(4-fluoro-2-isopropoxyphenyl)amino]-5-methylthieno[2,3-d]pyrimidine-6-carboxamide, reference compound], for which the IC50 at human full-length MKNK1 [1] was 9.8 nM. Further, in assay [4], the “Fraction number of 221 kinases with remaining activity >30% and <80%” value was 10/221; the “Fraction number of 221 kinases with remaining activity ≦30%” value is 9/221; the “Fraction number of 221 kinases with remaining activity ≧80%” value is 202/221. Moreover, the IC50 in assay [2] was 435 nM.
